From US20140024596A1, “DISEASE INHIBITING AGENT” (NITTA GELATIN INC., priority 2010, published 2014)
Non-standard residues stand in square brackets, D forms with d. Residues, ends and D or L forms follow the SMILES beside them. Hyp = O=C(O)[C@@H]1C[C@@H](O)CN1

Experiments:
[1] = in vivo; settings: male, Wistar, rat, po, 215 nmol/10 mL
Procedure: Male Wistar rats (170 g) were fasted overnight before subjected to the experiment.
As a test method, heart and portal vein of each rat were attached with a cannula to make one-directional perfusion.
To a perfusion sample solution (5.0 mL) collected from the portal vein was added 0.5 mL of 30% sulfosalicylic acid and stirred vigorously, and left overnight in a refrigerator. This sample was centrifuged at 3000 rpm for 10 minutes, to remove protein. For the supernatant of centrifugation, an amount of hydroxyproline in 0.5 mL was colorimetrically quantified, and an amount of free-type Hyp was obtained.
Further, 3.0 mL of the supernatant of centrifugation was weighed into a screw-top test tube, and thereto an equivalent amount of concentrated hydrochloric acid was added, and hydrolyzed at 110° C. for 24 hours. After concentrating and drying the resultant in an evaporator, and removing the hydrochloric acid, the solid was dissolved in 5 mL of distilled water, and several drops of a saturated lithium hydroxide solution was added thereto to adjust pH at 5 to 7, and the volume was fixed at 10 mL. For 2 mL of this solution, an amount of hydroxyproline was colorimetrically quantified to obtain a total Hyp amount. The value obtained by subtracting the amount of free-type Hyp before hydrolysis from the total Hyp amount after hydrolysis is an amount of peptide-form Hyp. From this amount of peptide-form Hyp, a quantitative value of absorption of each peptide molecule into rat portal vein perfusate in the test sample was first determined.
In the above description, the colorimetric quantification of the amount of hydroxyproline was conducted by the Firschein and Shill method described concretely in Evaluation test 4.
Also, identification and quantification of OG, PO, Ala-Hyp, and Ser-Hyp were conducted by HPLC analysis and mass spectrometry (LC/MS/MS) as will be described later.
Analysis of the peptide molecules in the perfusate was conducted by reverse-phase HPLC analysis. As a HPLC device, an LCSS-905 system manufactured by JASCO Corporation, consisting of a liquid feeding pump, a degasser, an automatic sampler, a column open, a UV spectrophotometer, a printer, and a system controller was used. As a reverse-phase column, Nova Pak C18 (3.9×150 mm) was used.
A linear gradient mobile phase of a 0.1% TFA-containing acetonitrile-water system was used, and the injection amount of the sample was 70 μL and the flow rate was 1 mL/min.
As a HPLC device, U980HPLC (manufactured by JASCO Corporation) attached with an ODS(C18) column (Mightysil RP-18, 2×250 mm, manufactured by Kanto Chemical Co Ltd) was used. As a mobile phase solvent, a 0.2% formic acid-containing acetonitrile-water system was used, and the concentration of acetonitrile was increased from 0% to 40% over 40 minutes by a linear gradient, and washed with 100% acetonitrile for 10 minutes. The sample injection amount was 10 μL, and the column temperature was 40° C.
MS analysis was conducted by a MS/MS system using a Quattro LC mass spectrophotometer (Micromass, Manchester, UK) according to a four-channel Multiple Reaction Monitoring method. To be more specific, the elute from HPLC was monitored by m/z being [M+H]^+ and by m/s of its fragment ion species. The monitoring was conducted by using [M+H]^+ m/z: 229.1>132.1 for PO, [M+H]^+ m/z: 219.1>132.1 for Ser-Hyp, [M+H]^+ m/z: 203.1>132.1 for Ala-Hyp, and [M+H]^+ m/z: 189.1>86.1 for OG.
The perfusate was treated with sulfosalicylic acid in a final concentration of 3%, to remove protein. The supernatant liquid was lyophilized and 10 mg of a dry powder was dissolved in distilled water, and subjected to a positive ion exchange resin column to obtain an ammonia elution fraction. After removing the solvent, the fraction was dissolved in distilled water and subjected to LC/MS/MS analysis.

[2] = test system: osteoclast (mouse primary bone marrow cell culture); experiment: Evaluation Test 1: osteoclast differentiation culture on plastic dish (TRAP-positive multinucleated giant cells); format: cell-based; settings: final concentration 625 μM, 6 days culture, control (blank) = 100, n = 6
Procedure: Evaluation was made in conformance with an osteoclast differentiation culture method by Kobayashi Y. et al. [J. Bone Miner. Metab. (2004) 22: p. 318-328]. […] As a control, TRAP inhibiting activity when no peptide was added (blank) was also examined.

[3] = test system: osteoclast (precursor cells of osteoclasts and bone marrow stromal cells on ivory piece); experiment: Evaluation Test 1: Pit assay, osteoclast cultured on ivory piece; format: cell-based, mouse; settings: control (blank) = 100, n = 6; for Relative number of TRAP-positive multinucleated giant cells (osteoclasts) by cultivation on ivory piece (%): cultured about 1 week on ivory piece; for Relative number of Pit (%): resorption cavities on ivory piece, about 1 week
Procedure: Further, the inhibition degree of differentiation and activation of osteoclast by each of the peptide molecules, and amino acids was evaluated by the following Pit assay. In brief, the Pi assay in which osteoclast is cultured on an ivory piece was conducted in conformance with Kakudo S, et al J. Bone Miner. Metab. (1996) 14: 129-136. The concrete procedure is as follows. […] Then, after removing the cells from the ivory piece with a silicone rubber policeman, the ivory piece was stained with an acid hematoxylin solution for several minutes. At this time, the number of TRAP staining positive multinucleated giant cells (osteoclast) was counted by TRAP staining, and a relative number with respect to the number of cells in control (blank) was calculated. Then, the Pit number (number of resorption cavity) by osteoclast was counted under a microscope, and the degree of inhibiting osteoclast by each peptide to be tested was indicated by a relative ratio to blank (control).

N[C@@H](CO)C(=O)N1C[C@H](O)C[C@H]1C(=O)O [Ser-Hyp] (H-Ser-[Hyp]-OH)
level at time molar [1]: 700 nM

O=C(O)[C@@H]1C[C@@H](O)CN1C(=O)[C@@H]1CCCN1 [PO, Pro-Hyp] (H-Pro-[Hyp]-OH)
level at time molar [1]: 21300 nM

N=C(N)NCCC[C@H](NC(=O)CNC(=O)[C@@H]1CCCN1C(=O)[C@H](CCCCN)NC(=O)CNC(=O)[C@@H]1CCCN1C(=O)[C@H](Cc1c[nH]cn1)NC(=O)CNC(=O)[C@H](CC(=O)O)NC(=O)[C@H](CCCCN)NC(=O)[C@@H](N)CCC(=O)O)C(=O)N1C[C@H](O)C[C@H]1C(=O)NCC(=O)N[C@@H](CCC(=O)O)C(=O)O [EKDGHPGKPGROGE] (H-EKDGHPGKPGR[Hyp]GE-OH)
level at time molar [1]: 100 nM

O=C(O)[C@@H]1CCCN1 [Pro, proline]
Relative area of TRAP-positive multinucleated giant cells (osteoclasts) by cultivation on plastic dish (%) [2]: 125 ± 69%
Relative number of TRAP-positive multinucleated giant cells (osteoclasts) by cultivation on plastic dish (%) [2]: 119 ± 44%
Relative number of TRAP-positive multinucleated giant cells (osteoclasts) by cultivation on ivory piece (%) [3]: 119 ± 20%
Relative number of Pit (%) [3]: 121 ± 23%

NCC(=O)N1CCC[C@H]1C(=O)N1C[C@H](O)C[C@H]1C(=O)NCC(=O)N1CCC[C@H]1C(=O)N1C[C@H](O)C[C@H]1C(=O)NCC(=O)O [G(POG)2, Gly-(Pro-Hyp-Gly)2] (H-GP[Hyp]GP[Hyp]G-OH; N-terminus and C-terminus assumed)
level at time molar [1]: 100 nM

O=C(O)CNC(=O)[C@@H]1C[C@@H](O)CN1 [OG, Hyp-Gly] (H-[Hyp]-Gly-OH)
level at time molar [1]: 9800 nM

O=C(O)CNC(=O)[C@@H]1C[C@@H](O)CN1C(=O)[C@@H]1CCCN1C(=O)CNC(=O)[C@@H]1C[C@@H](O)CN1C(=O)[C@@H]1CCCN1C(=O)CNC(=O)[C@@H]1C[C@@H](O)CN1C(=O)[C@@H]1CCCN1 [(POG)3, (Pro-Hyp-Gly)3] (H-P[Hyp]GP[Hyp]GP[Hyp]G-OH)
level at time molar [1]: 900 nM

C[C@H](N)C(=O)N1C[C@H](O)C[C@H]1C(=O)O [Ala-Hyp] (H-Ala-[Hyp]-OH)
level at time molar [1]: 1200 nM

NCC(=O)N1CCC[C@H]1C(=O)N1C[C@H](O)C[C@H]1C(=O)NCC(=O)N1CCC[C@H]1C(=O)N1C[C@H](O)C[C@H]1C(=O)NCC(=O)N1CCC[C@H]1C(=O)N1C[C@H](O)C[C@H]1C(=O)NCC(=O)O [G(POG)3, Gly-(Pro-Hyp-Gly)3] (H-GP[Hyp]GP[Hyp]GP[Hyp]G-OH)
level at time molar [1]: 80 nM

CC(C)C[C@H](NC(=O)[C@H](Cc1c[nH]cn1)NC(=O)CNC(=O)[C@H](CC(=O)O)NC(=O)CNC(=O)[C@@H](N)CCC(=O)O)C(=O)NCC(=O)N[C@@H](CCCCN)C(=O)N1CCC[C@H]1C(=O)NCC(=O)N[C@@H](CCCNC(=N)N)C(=O)N1C[C@H](O)C[C@H]1C(=O)NCC(=O)N[C@@H](CCC(=O)O)C(=O)O [EGDGHLGKPGROGE] (H-EGDGHLGKPGR[Hyp]GE-OH)
level at time molar [1]: 100 nM

O=C(O)CNC(=O)[C@@H]1C[C@@H](O)CN1C(=O)[C@@H]1CCCN1C(=O)CNC(=O)[C@@H]1C[C@@H](O)CN1C(=O)[C@@H]1CCCN1C(=O)CNC(=O)[C@@H]1C[C@@H](O)CN1C(=O)[C@@H]1CCCN1C(=O)CNC(=O)[C@@H]1C[C@@H](O)CN1C(=O)[C@@H]1CCCN1 [(POG)4, (Pro-Hyp-Gly)4] (H-P[Hyp]GP[Hyp]GP[Hyp]GP[Hyp]G-OH)
level at time molar [1]: 800 nM

O=C(O)CNC(=O)[C@@H]1C[C@@H](O)CN1C(=O)[C@@H]1CCCN1C(=O)CNC(=O)[C@@H]1C[C@@H](O)CN1C(=O)[C@@H]1CCCN1 [(POG)2, (Pro-Hyp-Gly)2] (H-P[Hyp]GP[Hyp]G-OH; N-terminus and C-terminus assumed)
level at time molar [1]: 1100 nM

O=C(O)[C@@H]1C[C@@H](O)CN1 [Hyp, hydroxyproline]
Relative area of TRAP-positive multinucleated giant cells (osteoclasts) by cultivation on plastic dish (%) [2]: 117 ± 13 %
Relative number of TRAP-positive multinucleated giant cells (osteoclasts) by cultivation on plastic dish (%) [2]: 126 ± 4 %
Relative number of TRAP-positive multinucleated giant cells (osteoclasts) by cultivation on ivory piece (%) [3]: 141 ± 9 %
Relative number of Pit (%) [3]: 131 ± 11 %
